ChEMBL document CHEMBL5620344, “Discovery of novel 5-(2-hydroxyphenyl)-2-phthalide-3(3H)-pyrazolones as balanced multifunctional agents against Alzheimer's disease” (Eur J Med Chem, 2023)

What was measured:
MAO-A = biological target: T1, MAO-A (Homo sapiens, UniProt P21397); assay: Inhibition of human recombinant MAO-A at 10 uM
T1 sequence (P21397 whole entry): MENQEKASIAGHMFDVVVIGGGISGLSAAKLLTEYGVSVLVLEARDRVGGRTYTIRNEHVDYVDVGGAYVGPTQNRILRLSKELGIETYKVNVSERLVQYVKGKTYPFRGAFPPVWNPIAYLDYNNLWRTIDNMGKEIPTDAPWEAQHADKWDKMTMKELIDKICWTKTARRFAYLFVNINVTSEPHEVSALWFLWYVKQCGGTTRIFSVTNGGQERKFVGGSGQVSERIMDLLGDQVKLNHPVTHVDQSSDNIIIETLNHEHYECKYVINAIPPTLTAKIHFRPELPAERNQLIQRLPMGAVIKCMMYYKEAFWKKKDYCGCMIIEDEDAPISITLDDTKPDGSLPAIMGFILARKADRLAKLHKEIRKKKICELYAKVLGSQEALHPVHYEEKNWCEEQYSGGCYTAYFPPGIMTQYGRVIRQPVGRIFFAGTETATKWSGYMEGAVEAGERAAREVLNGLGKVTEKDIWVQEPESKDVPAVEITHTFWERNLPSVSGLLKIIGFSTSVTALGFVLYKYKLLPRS

[1] = biological target: T2, Amine oxidase [flavin-containing] A (Homo sapiens, UniProt P21397); assay: Inhibition of human recombinant MAO-A
T2 sequence (P21397 whole entry): T1 sequence (P21397 whole entry)

[2] = biological target: T3, Amine oxidase [flavin-containing] B (Homo sapiens, UniProt P27338); assay: Inhibition of human recombinant MAO-B
T3 sequence (P27338 whole entry): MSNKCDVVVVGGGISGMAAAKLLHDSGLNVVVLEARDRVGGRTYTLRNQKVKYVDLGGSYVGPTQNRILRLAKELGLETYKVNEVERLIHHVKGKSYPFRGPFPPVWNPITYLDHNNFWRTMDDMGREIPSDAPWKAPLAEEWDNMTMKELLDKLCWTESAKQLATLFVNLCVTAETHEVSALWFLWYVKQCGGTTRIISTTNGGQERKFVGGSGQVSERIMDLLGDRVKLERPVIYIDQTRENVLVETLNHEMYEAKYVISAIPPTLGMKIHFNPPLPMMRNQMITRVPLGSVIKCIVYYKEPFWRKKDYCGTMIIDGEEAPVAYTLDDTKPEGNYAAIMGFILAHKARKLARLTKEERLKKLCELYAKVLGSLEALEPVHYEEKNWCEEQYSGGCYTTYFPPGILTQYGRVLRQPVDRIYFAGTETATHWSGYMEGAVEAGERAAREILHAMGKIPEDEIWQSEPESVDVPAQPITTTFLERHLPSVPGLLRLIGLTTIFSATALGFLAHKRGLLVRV

[3] = Selectivity index, ratio of IC50 for human recombinant MAO-A to IC50 for human recombinant MAO-B
[4] = Antioxidant activity assessed as trolox equivalent of ORAC radical scavenging activity by ORAC-FL assay relative to trolox; assay type: functional
[5] = biological target: Amyloid-beta precursor protein (Homo sapiens) (UniProt P05067); assay: Inhibition of self-induced amyloid beta (1 to 42) (unknown origin) aggregation at 25 uM by ThT fluorescence assay
Sequence of Amyloid-beta precursor protein (Homo sapiens) (P05067 whole entry): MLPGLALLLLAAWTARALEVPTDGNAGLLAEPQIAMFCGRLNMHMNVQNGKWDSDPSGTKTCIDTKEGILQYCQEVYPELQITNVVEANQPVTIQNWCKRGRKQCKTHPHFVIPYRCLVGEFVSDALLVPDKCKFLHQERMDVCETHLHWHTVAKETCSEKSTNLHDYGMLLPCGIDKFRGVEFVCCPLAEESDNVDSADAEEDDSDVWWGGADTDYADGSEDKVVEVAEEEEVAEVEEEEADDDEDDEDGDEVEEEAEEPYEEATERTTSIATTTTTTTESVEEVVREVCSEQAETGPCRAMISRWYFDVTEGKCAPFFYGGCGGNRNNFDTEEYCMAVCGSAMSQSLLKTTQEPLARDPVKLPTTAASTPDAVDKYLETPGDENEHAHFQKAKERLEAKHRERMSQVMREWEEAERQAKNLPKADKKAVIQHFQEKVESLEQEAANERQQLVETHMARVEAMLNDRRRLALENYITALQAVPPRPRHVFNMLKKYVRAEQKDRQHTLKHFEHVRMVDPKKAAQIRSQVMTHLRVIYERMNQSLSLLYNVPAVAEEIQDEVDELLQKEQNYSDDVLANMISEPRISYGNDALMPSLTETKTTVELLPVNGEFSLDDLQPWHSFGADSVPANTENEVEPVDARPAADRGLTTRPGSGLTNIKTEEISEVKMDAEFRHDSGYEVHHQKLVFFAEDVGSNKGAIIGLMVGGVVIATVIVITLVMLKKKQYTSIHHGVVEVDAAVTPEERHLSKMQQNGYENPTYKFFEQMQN

[6] = biological target: Amyloid-beta precursor protein (Homo sapiens) (UniProt P05067); assay: Disaggregation of self-induced amyloid beta (1 to 42) (unknown origin) preformed fibrils at 25 uM by ThT fluorescence assay
[7] = biological target: Amyloid-beta precursor protein (Homo sapiens) (UniProt P05067); assay: Inhibition of Cu2+-induced amyloid beta (1 to 42) (unknown origin) aggregation at 25 uM by ThT fluorescence assay
[8] = biological target: Amyloid-beta precursor protein (Homo sapiens) (UniProt P05067); assay: Disaggregation of Cu2+-induced amyloid beta (1 to 42) (unknown origin) preformed fibrils at 25 uM by ThT fluorescence assay

Row | Structure (SMILES) | inhibition at 10 µM (MAO-A) [%] | IC50 [1] [µM] | IC50 [2] [µM] | Ratio IC50 [3] | Ratio [4] [equiv] | inhibition [5] [%] | Activity [6] [%] | inhibition [7] [%] | Activity [8] [%] | inhibition ([5]; tested as the 2H-labelled form) [%] | Activity ([6]; tested as the 2H-labelled form) [%]
1 | C[C@H](NCc1ccc(OCc2cccc(F)c2)cc1)C(N)=O [SAFINAMIDE] | 9.67 |  |  |  |  |  |  |  |  |  | 
2 | CCCCC1OC(=O)c2cc(N3N=C(c4cc([N+](=O)[O-])ccc4O)CC3=O)ccc21 (configuration not stated) | 8.48 | > 10 | 9.26 | > 1.1 | 0.73 | 68.8 | 57.2 | 66.1 | 61.8 |  | 
3 | COc1cc(/C=C/C(=O)CC(=O)/C=C/c2ccc(O)c(OC)c2)ccc1O |  |  |  |  |  |  | 35.8 |  |  |  | 
4 | CCCCC1OC(=O)c2cc(N3N=C(c4cc(Br)ccc4O)CC3=O)ccc21 (configuration not stated) | 10.9 | > 10 | 9.25 | > 1.08 | 1.38 | 69.3 | 44.8 | 64.1 | 55 |  | 
5 | CCCCCCC1OC(=O)c2cc(N3N=C(c4cc(F)ccc4O)CC3=O)ccc21 (configuration not stated) | 10.7 | > 10 | 6.34 | > 1.6 | 1.1 | 44.6 | 43.7 | 31.8 | 55 |  | 
6 | CCCCC1OC(=O)c2cc(N3N=C(c4cc(C)ccc4O)CC3=O)ccc21 (configuration not stated) | 5.2 | > 10 | 7.35 | > 1.4 | 1.6 | 54.4 | 24.7 | 61.2 |  |  | 
7 | CCCCC1OC(=O)c2cc(-n3nc(-c4ccccc4O)cc3C)ccc21 (configuration not stated) | 20.4 | > 10 | > 10 |  | 1.38 | 19.3 | 8.11 |  |  |  | 
8 | CCCCC1OC(=O)c2cc(N3N=C(c4cc(OC)ccc4O)CC3=O)ccc21 (configuration not stated) | 2.97 | > 10 | 3.88 | > 2.6 | 2.28 | 78 | 59.9 | 71 | 69.1 |  | 
9 | CCCCC1OC(=O)c2cc(N3N=C(c4cc(Cl)cc(Cl)c4O)CC3=O)ccc21 (configuration not stated) | 1.11 | > 10 | 5.53 | > 1.8 | 0.97 | 55.1 | 78.3 | 70.3 | 77.7 |  | 
10 | CCCCCCCC1OC(=O)c2cc(N3N=C(c4cc(OC)ccc4O)CC3=O)ccc21 (configuration not stated) | 8.73 | > 10 | 2.87 | > 3.5 | 1.82 | 45.4 | 31.1 | 63.1 | 60.7 |  | 
11 | CCCCC1OC(=O)c2cc(N3N=C(c4cc(N(C)C)ccc4O)CC3=O)ccc21 (configuration not stated) | 1.6 | > 10 | 6.2 | > 1.6 | 2.58 | 60.6 | 51 | 63.8 | 55.7 |  | 
12 | O=C1OCc2ccc(N3N=C(c4cc(F)ccc4O)CC3=O)cc21 | 24.2 | > 10 | 0.56 | > 17.9 | 1.25 | 46.1 | 41.1 | 44.7 | 42.8 |  | 
13 | CCCCC1OC(=O)c2cc(N3N=C(c4cc(Cl)ccc4O)CC3=O)ccc21 (configuration not stated) | 14.1 | > 10 | 7.62 | > 1.3 | 1.32 | 85.1 | 49.9 | 58.8 | 74.6 |  | 
14 | CCCCCCC1OC(=O)c2cc(N3N=C(c4ccccc4O)CC3=O)ccc21 (configuration not stated) | 21.7 | > 10 | 3.79 | > 2.6 | 1.33 | 50.3 | 59.5 | 43.8 | 66.7 |  | 
15 | CC1=NN(c2ccc3c(c2)C(=O)OC3)C(=O)C1 |  |  |  | 1.6 | 1.18 |  |  |  |  | 71.5 | 28.6
16 | O=C1OCc2ccc(N3N=C(c4cccc(F)c4O)CC3=O)cc21 | 21 | > 10 | 0.9 | > 11.1 | 1.1 | 21.3 | 8.27 |  |  |  | 
17 | O=C1OCc2ccc(N3N=C(c4ccccc4O)CC3=O)cc21 | 23.2 | > 10 | 0.22 | > 45.5 | 1.38 | 33.5 | 28.1 |  |  |  | 
18 | CCCCCCC1OC(=O)c2cc(N3N=C(c4cc(Cl)ccc4O)CC3=O)ccc21 (configuration not stated) | 27.8 | > 10 | 8.32 | > 1.2 | 1.18 | 54.6 | 76.3 | 52.7 | 73.8 |  | 
19 | CCCCCCCC1OC(=O)c2cc(N3N=C(c4ccccc4O)CC3=O)ccc21 (configuration not stated) | 14.5 | > 10 | 11.4 | > 0.9 | 1.38 | 57.8 | 68.6 | 44.1 | 71.7 |  | 
20 | CCCCC1OC(=O)c2cc(N3N=C(c4ccc(Br)cc4O)CC3=O)ccc21 (configuration not stated) | 14.8 | > 10 | 12.3 | > 0.8 | 1.22 | 65.6 | 54.1 | 69.4 | 66 |  | 
21 | [2H]C1OC(=O)c2cc(N3N=C(C)CC3=O)ccc21 (configuration not stated) |  | 6.78 | 4.36 |  |  |  |  |  |  |  | 
22 | CCCCC1OC(=O)c2cc(N3N=C(c4ccc(Cl)cc4O)CC3=O)ccc21 (configuration not stated) | 5.51 | > 10 | 8.05 | > 1.2 | 1.29 | 68 | 56.5 | 66.2 | 65.6 |  | 
23 | CCCCC1OC(=O)c2cc(N3N=C(c4ccccc4O)CC3=O)ccc21 (configuration not stated) | 25.6 | > 10 | > 10 |  | 1.55 | 70.9 | 65 | 75.3 | 76.4 |  | 
24 | CCCCC1OC(=O)c2cc(N3N=C(c4cc(Cl)cc(Br)c4O)CC3=O)ccc21 (configuration not stated) | 8.09 | > 10 | 6.5 | > 1.5 | 1.1 | 65.2 | 87.1 | 85.1 | 86.8 |  | 
25 | CCCCC1OC(=O)c2cc(N3N=C(c4cccc(F)c4O)CC3=O)ccc21 (configuration not stated) | 7.96 | > 10 | > 10 |  | 1.07 | 67 | 42.6 | 75.9 | 54.6 |  | 
26 | CCCCC1OC(=O)c2cc(N3N=C(c4ccc(N(C)C)cc4O)CC3=O)ccc21 (configuration not stated) | 9.51 | > 10 | 5.07 | > 2 | 1.84 | 24.9 | 7.68 |  |  |  | 
27 | CCCCC1OC(=O)c2cc(N3N=C(c4cc(F)ccc4O)CC3=O)ccc21 (configuration not stated) | 13.3 | > 10 | 3.45 | > 2.9 | 1.21 | 66.6 | 52.7 | 60.3 | 59.5 |  | 
28 | CCCCC1OC(=O)c2cc(N3N=C(c4cccc(Br)c4O)CC3=O)ccc21 (configuration not stated) | 13 | > 10 | 10.5 | > 1 | 1.15 | 75.5 | 67.4 | 50.6 | 62.8 |  | 
